Results on 9 molecules are retold here after paper PMC7767166, “Imidazole and Imidazolium Antibacterial Drugs Derived from Amino Acids” (Pharmaceuticals, 2020).

Structures are written as SMILES. Like-named read-outs stand apart in the source and are kept apart here.

For orientation: MBC means the smallest concentration meeting the test's criterion for killing.

Data set [1] deals with Bacillus subtilis 1904-E. Briefly: Bacterial cell viability assay (Resazurin), MBC. The class given is cell-based. Particulars: read-out: B. subtilis MBC. The method, then: (§1) The in vitro antibacterial activities of the synthesized compounds were examined against E. coli and B. subtilis. Bacteria were incubated in culture media with varying concentrations of the examined compound and the antibacterial properties were determined by observation of the optical density at 560 nm (bacteriostatic activity) and by the Resazurin cell viability assay (bactericidal activity). The corresponding minimal bactericidal concentration (MBC) and minimum inhibitory concentration (MIC) values that were obtained are summarized in Table 1 (please refer to Table S1 for MIC and MBC values in μM).
(§2) Two bacterial strains were used in the antibacterial assays: Escherichia coli DH5α as a Gram-negative model and Bacillus subtilis 1904-E as a Gram-positive model. Both bacterial strains were donated to our laboratory and can be provided on request by contacting the corresponding authors. Both bacterial strains were incubated at 37 °C and the pre-inoculum incubation time was of 24 h. Liquid Luria-Bertani (LB) medium was used for E. coli DH5α and nutrient broth (NB) for B. subtilis.
(§3) The bacteria cell bank suspensions were thawed and inoculated in the appropriate liquid broth for 24 h at 37 °C with mild agitation. A dilution from these culture solutions was used for the following tests, corresponding to an inoculum of 1 × 10^7 CFU/mL. Stock solutions of all the tested compounds were prepared in DMSO at a concentration of 100 mg/mL, aliquoted, and stored at −20 °C.
(§4) (B) Bacterial cell viability assay: Cell viability was analyzed using a Resazurin (7-Hydroxy-3H-phenoxazin-3-one 10-oxide) assay in a 96-well plate. Once the bacterial cultures of growth inhibition assay had been grown for a total of 24 h, 25 μL of a 0.1 mg/mL resazurin (prepared in LB or NB medium) were added to each well and incubated in the dark at 37 °C for 1 h under stirring. Resazurin has a blue color at the testing pH and turns pink when reduced by the viable bacteria to resorufin. Therefore, pink wells indicate metabolizing bacteria, while blue wells are indicative of bacteria that have lost their ability to convert resazurin to resorufin. Different controls were made in order to corroborate the MBC value obtained by the resazurin assay. The change of color was confirmed at 1, 4, and 24 h after its addition. The viability of bacteria was verified (either confirmed or rejected) by the colony plate-counting method, by seeding 10 μL from the cell culture onto tryptone soy agar plates and observing the presence or absence of bacterial growth after 24 h at 37 °C.
On the technique in general: The colour change of resazurin is a common sign of viable cells or microbes.

The test system of data set [2] is Escherichia coli DH5α. Briefly: Bacterial cell viability assay (Resazurin), MBC. The data set is classed as cell-based. The note with it: read-out: E. coli MBC. The method, then:
as §1, §2, §3, §4

Data set [3] in a line: Critical aggregation concentration by pyrene fluorescence (I1/I3). The class given is physicochemical. The note with it: for CAC Fluorescence, CCM:W, CAC1 / CAC Fluorescence, CCM:W, CAC2: 1/1 bacterial cell culture medium/water; for CAC Fluorescence, CCM:W, CAC1 / CAC Fluorescence, CCM:W, CAC2 / CAC Fluorescence, W: 25 °C; for CAC Fluorescence, CCM:W, CAC1: first break point; for CAC Fluorescence, CCM:W, CAC2: second break point; for CAC Fluorescence, W: in water, from the break point. From the text:
To investigate the microenvironment of the critical aggregation concentration (CAC) for self-assembly in water and in the bacterial cell culture medium by fluorescence, the intensity ratio of two of the peaks (I1/I3) of the pyrene fluorescence spectrum was used. Plots of the pyrene I1/I3 ratio as a function of the total surfactant concentration show a typical sigmoidal decrease in the region where self-assembly takes place. At low concentrations, this ratio is larger as it corresponds to a polar environment for pyrene. When the surfactant concentration increases this ratio decreases rapidly, as the self-assembly favors the location of pyrene in a more hydrophobic environment, until reaching a roughly constant value because of the full incorporation of the probe into the hydrophobic region of the aggregates. Different approaches have been used to estimate CAC values from I1/I3 ratios. The most common approach is the use of the break points, either directly or by extrapolating the values from the intersection of the two straight lines defined at the constant and variable regions of the I1/I3 sigmoidal curve. As CAC represents the threshold of concentration at which self-aggregation starts, the corresponding value can be estimated from the break point at lower concentration (see Figures S9–S14). Fluorescence studies were carried out using MilliQ® water and 1/1 MilliQ® water/bacterial cell culture medium, because with the pure cell culture medium, a strong broad fluorescence emission band was observed precluding an accurate analysis. […] The corresponding CACs obtained in water and in the 1/1 mixture of water/bacterial cell culture medium by fluorescence are shown in Table 2. Pyrene was used as a fluorescence probe to determine the CAC of the compounds in water and 1/1 water/bacterial cell culture medium at 25 ± 1 °C. Fluorescence measurements were performed with a Spex Fluorolog 3-11 instrument equipped with a 450 W xenon lamp (right angle mode). Firstly, a stock pyrene solution of 1.98 × 10^−4 mol/L was prepared in ultrapure methanol. Then, solutions of the imidazole and imidazolium salt compounds (ranging from 6 to 3 × 10^−3 mmol/L) were prepared in different vials and 5 μL of pyrene solution was transferred into the vials, reaching a final pyrene concentration of 9.89 × 10^−7 mol/L in each vial. Fluorescence spectra of pyrene were recorded from 200 to 650 nm after excitation at 337 nm, and the spectra were not corrected for the Xe lamp spectral response. The slit width was set at 5 nm for both excitation and emission. The peak intensities at 373 and 385 nm were determined as I1 and I3, respectively. The ratios of the peak intensities at 373 and 385 nm (I1/I3) for the emission spectra were recorded as a function of the logarithm of concentration. The CAC values were taken from the break point. Samples were excited with a 337 nm NanoLED.

[4] abbreviates: 24 h, Resazurin after 24 h growth, nutrient broth, minimum of three experiments.
The mark [5] stands for this setting: mode of at least three experiments.
The mark [6] stands for this setting: Resazurin after 24 h growth, LB medium, minimum of three experiments.
Where [7] appears, read: bacterial cell culture medium/water.

As for `CCCCCCCCCCCCNC(=O)[C@H](C(C)C)n1ccnc1` [Compound 1a], the MBC was at most 16 µg/mL in data set [1] (setting [4]), 48 µM in data set [1] (setting [5]), above 2000 µg/mL in data set [2] (setting [6]) and above 6000 µM in data set [2] (setting [5]). Also, in data set [3], the “CAC Fluorescence, CCM:W, CAC1” value came to 0.004 mM. Also, in data set [3], the “CAC Fluorescence, CCM:W, CAC2” value stood at 0.045 mM. In addition, the “CAC Fluorescence, W” value in data set [3] was found to be 0.085 mM.

Turning to `CCCCCCCCCCCCNC(=O)[C@H](C(C)C)n1cc[n+](Cc2ccccc2)c1` [Compound 1b], the MBC in data set [1] (setting [4]) is at most 16 µg/mL. Also, the minimal bactericidal concentration (MBC) in data set [1] (setting [5]) turned out to be 18 µM. Besides, the minimal bactericidal concentration (MBC) in data set [2] (setting [6]) came out at 256 µg/mL. In addition, in data set [2] (setting [5]), the MBC came to 581 µM. In addition, in data set [3], the “CAC Fluorescence, CCM:W, CAC1” value is listed as 0.006 mM; the “CAC Fluorescence, CCM:W, CAC2” value amounted to 0.048 mM; the “CAC Fluorescence, W” value was 0.084 mM. In addition, in data set [3] (setting [7]), the “first break point (I1/I3 vs concentration)” value turned out to be 6 µM and the “second break point (I1/I3 vs concentration)” value is on record as “ca. 48 μM”.

Take `CCCCCCCCCCCCNC(=O)[C@H](C(C)C)n1cc[n+](Cc2cccc(C[n+]3ccn([C@@H](C(=O)NCCCCCCCCCCCC)C(C)C)c3)c2)c1` [Compound 1c]: the MBC came to 32 µg/mL in data set [1] (setting [4]), 34 µM in data set [1] (setting [5]), 256 µg/mL in data set [2] (setting [6]) and 269 µM in data set [2] (setting [5]). Further, the “CAC Fluorescence, CCM:W, CAC1” value in data set [3] is reported as 0.016 mM. In addition, the “CAC Fluorescence, CCM:W, CAC2” value in data set [3] came out at 0.21 mM. Besides, the “CAC Fluorescence, W” value in data set [3] was found to be 0.010 mM.

Turning to `CCCCNC(=O)[C@H](C(C)C)n1ccnc1` [Compound 2a], the MBC was above 2000 µg/mL in data set [1] (setting [4]), above 9000 µM in data set [1] (setting [5]), above 2000 µg/mL in data set [2] (setting [6]) and above 9000 µM in data set [2] (setting [5]). Further, in data set [3], the “CAC Fluorescence, CCM:W, CAC1” value is recorded as 2.89 mM. For the same molecule, the “CAC Fluorescence, CCM:W, CAC2” value in data set [3] is recorded as 5.4 mM. The “CAC Fluorescence, W” value in data set [3] is 4.31 mM.

Regarding `CCCCNC(=O)[C@H](C(C)C)n1cc[n+](Cc2ccccc2)c1` [Compound 2b], the MBC is above 1000 µg/mL in data set [1] (setting [4]), 2590 µM in data set [1] (setting [5]), above 2000 µg/mL in data set [2] (setting [6]) and above 5000 µM in data set [2] (setting [5]). In data set [3], the “CAC Fluorescence, CCM:W, CAC1” value came to 3.46 mM. The “CAC Fluorescence, CCM:W, CAC2” value in data set [3] worked out at 8.4 mM. For the same molecule, the “CAC Fluorescence, W” value in data set [3] is reported as 4.57 mM.

On to `CCCCNC(=O)[C@H](C(C)C)n1cc[n+](Cc2cccc(C[n+]3ccn([C@@H](C(=O)NCCCC)C(C)C)c3)c2)c1` [Compound 2c], for which the MBC in data set [1] (setting [4]) was 256 µg/mL; in data set [1] (setting [5]), 361 µM; in data set [2] (setting [6]), above 2000 µg/mL; in data set [2] (setting [5]) it was above 2900 µM. Also, the “CAC Fluorescence, CCM:W, CAC1” value in data set [3] was determined as 2.25 mM. Besides, in data set [3], the “CAC Fluorescence, CCM:W, CAC2” value is reported as 3.54 mM. The “CAC Fluorescence, W” value in data set [3] worked out at 2.34 mM.

Consider `CCCCCCCCCCCCNC(=O)[C@H](Cc1ccccc1)n1ccnc1` [Compound 3a], for which the MBC is at most 16 µg/mL in data set [1] (setting [4]), 42 µM in data set [1] (setting [5]), above 2000 µg/mL in data set [2] (setting [6]) and above 5000 µM in data set [2] (setting [5]). In data set [3], the “CAC Fluorescence, CCM:W, CAC1” value amounted to 0.018 mM. For the same molecule, the “CAC Fluorescence, CCM:W, CAC2” value in data set [3] is listed as 0.325 mM. In data set [3], the “CAC Fluorescence, W” value amounted to 0.033 mM.

Turning to `CCCCCCCCCCCCNC(=O)[C@H](Cc1ccccc1)n1cc[n+](Cc2ccccc2)c1` [Compound 3b], the MBC in data set [1] (setting [5]) came out at 7 µM. In addition, in data set [2] (setting [6]), the MBC is 128 µg/mL. Moreover, in data set [2] (setting [5]), the MBC was 229 µM. Moreover, in data set [3], the “CAC Fluorescence, CCM:W, CAC1” value stood at 0.063 mM; the “CAC Fluorescence, CCM:W, CAC2” value is recorded as 0.33 mM; the “CAC Fluorescence, W” value came out at 0.098 mM.

In the case of `CCCCCCCCCCCCNC(=O)[C@@H](Cc1ccccc1)n1cc[n+](Cc2cccc(C[n+]3ccn([C@@H](Cc4ccccc4)C(=O)NCCCCCCCCCCCC)c3)c2)c1` [Compound 3c], the MBC in data set [1] (setting [4]) is 64 µg/mL; in data set [1] (setting [5]) it was 62 µM; in data set [2] (setting [6]) it was 2000 µg/mL; in data set [2] (setting [5]), 1990 µM.
